The source of these data is patent US20060142202A1, “Compositions and methods for targeted delivery of immune response modifiers” (3M Innovative Properties Company, priority 2000, published 2006).

As for `CCOCc1nc2c(N)nc3ccccc3c2n1CC(C)(C)NC(=O)CCC(=O)NN` [IRM5, N-{2-[4-Amino-2-(ethoxymethyl)-1H-imidazo[4,5-c]quinolin-1-yl]-1,1-dimethylethyl}-4-hydrazino-4-oxobutanamide], the melting point (commonly the temperature of the solid-liquid transition) lay within 203 to 204.6 °C.
The value for `CCCc1nc2c(N)nc3cc(OCCCCCCNC(=O)c4ccc(N=[N+]=[N-])cc4O)ccc3c2s1` [IRM9, N-{6-[(4-Amino-2-propyl[1,3]thiazolo[4,5-c]quinolin-7-yl)oxy]hexyl}-4-azido-2-hydroxybenzamide] was 127 to 128 °C.
